Laboratory results published in the supplement of paper PMC12698765.
± gives the standard deviation of the averaged measurements.

Key:
[1] = system: 409B2 hiPSC (iCRISPR Cas9, FRMD7 editing); test: NHEJ-attributed indel frequency relative to solvent control (fold (ratio to mock)); higher = more NHEJ outcomes
Procedure: (§1)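 Subset screen of 55 drugs tested at 5 concentrations around the effective screening dose, in 409B2 iCRISPR Cas9 hiPSCs editing FRMD7 with a ssDNA donor. Drugs were applied for 24 h. Viability was read by resazurin and editing outcomes by amplicon sequencing (HDR, NHEJ <2 bp microhomology, MMEJ ≥2 bp microhomology). Values are relative to solvent mock controls; two biological replicates.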

[2] = system: 409B2 hiPSC (iCRISPR Cas9, FRMD7 editing); test: MMEJ-attributed deletion frequency relative to solvent control (fold (ratio to mock)); higher = more MMEJ outcomes
Procedure: as §1

[3] = system: 409B2 hiPSC (iCRISPR Cas9, FRMD7 editing); test: cell survival relative to solvent control (fold (ratio to mock)); higher = more surviving cells
Procedure: as §1

[4] = system: 409B2 hiPSC (iCRISPR Cas9, FRMD7 editing); test: HDR (precise edit) frequency relative to solvent control (fold (ratio to mock)); higher = more homology-directed repair outcomes
Procedure: as §1

SMILES | NHEJ-attributed indel frequency ([1]; 20 nM) | NHEJ-attributed indel frequency ([1]; 50 nM) | NHEJ-attributed indel frequency ([1]; 200 nM) | NHEJ-attributed indel frequency ([1]; 500 nM) | MMEJ-attributed deletion frequency ([2]; 20 nM) | MMEJ-attributed deletion frequency ([2]; 50 nM) | MMEJ-attributed deletion frequency ([2]; 200 nM) | MMEJ-attributed deletion frequency ([2]; 500 nM) | cell survival ([3]; 20 nM) | cell survival ([3]; 50 nM) | cell survival ([3]; 200 nM) | cell survival ([3]; 500 nM) | HDR ([4]; 20 nM) | HDR ([4]; 50 nM) | HDR ([4]; 200 nM) | HDR ([4]; 500 nM) | NHEJ-attributed indel frequency ([1]; 2000 nM) | NHEJ-attributed indel frequency ([1]; 5000 nM) | MMEJ-attributed deletion frequency ([2]; 2000 nM) | MMEJ-attributed deletion frequency ([2]; 5000 nM) | also measured
C=CC[C@]1(O)CC[C@H]2[C@@H]3CCC4=CC(=O)CCC4=C3C=C[C@@]21C [Altrenogest] (in DMSO) | 0.9775 ± 0.0069 | 1.007 ± 0.0051 | 1 ± 0.038 | 1.02 ± 0.036 | 1 ± 0.085 | 0.963 ± 0.12 | 0.888 ± 0.14 | 0.98 ± 0.18 | 1.01 | 1.11 | 1.05 | 1.06 | 1.08 ± 0.065 | 1.08 ± 0.06 | 1.048 ± 0.0023 | 1.01 ± 0.088 |  |  |  |  | NHEJ-attributed indel frequency ([1]; 100 nM): 1.007 ± 0.0033; MMEJ-attributed deletion frequency ([2]; 100 nM): 1.02 ± 0.12; cell survival ([3]; 100 nM): 0.87; HDR ([4]; 100 nM): 1.024 ± 0.0079
CC(C)(c1ccc(O)cc1)c1ccc(O)cc1 [Bisphenol A] (in DMSO) | 1 ± 0.011 | 1.01 ± 0.014 | 1.015 ± 0.0024 | 1.02 ± 0.051 | 1.02 ± 0.062 | 0.8949 ± 0.0088 | 0.965 ± 0.066 | 1.01 ± 0.15 | 1.02 | 1.14 | 1.22 | 1.14 | 1.025 ± 0.0061 | 1.01 ± 0.028 | 1.023 ± 0.0052 | 0.983 ± 0.05 |  |  |  |  | NHEJ-attributed indel frequency ([1]; 100 nM): 1.01 ± 0.045; MMEJ-attributed deletion frequency ([2]; 100 nM): 0.974 ± 0.23; cell survival ([3]; 100 nM): 0.953; HDR ([4]; 100 nM): 1.07 ± 0.025
Oc1cccc(O)c1 [Resorcinol] (in DMSO) |  |  | 0.988 ± 0.024 | 0.995 ± 0.0014 |  |  | 0.916 ± 0.095 | 0.884 ± 0.054 |  |  | 1.15 | 1.17 |  |  | 1.07 ± 0.072 | 1.08 ± 0.038 | 0.999 ± 0.033 | 0.99 ± 0.043 | 0.934 ± 0.13 | 0.922 ± 0.16 | NHEJ-attributed indel frequency ([1]; 1000 nM): 1 ± 0.043; MMEJ-attributed deletion frequency ([2]; 1000 nM): 0.824 ± 0.045; cell survival ([3]; 1000 nM): 0.955; cell survival ([3]; 2000 nM): 1.03; cell survival ([3]; 5000 nM): 1.12; HDR ([4]; 1000 nM): 1.11 ± 0.026; HDR ([4]; 2000 nM): 1.07 ± 0.021; HDR ([4]; 5000 nM): 1.06 ± 0.073
CCN1CCN(Cc2ccc(Nc3ncc(F)c(-c4cc(F)c5nc(C)n(C(C)C)c5c4)n3)nc2)CC1 (in EtOH) |  |  |  |  |  |  |  |  |  |  |  |  |  |  |  |  | 0.504 ± 0.61 | 0.11 ± 0.075 | 0.565 ± 0.58 | 0.159 ± 0.15 | NHEJ-attributed indel frequency ([1]; 10000 nM): 0.157 ± 0.018; NHEJ-attributed indel frequency ([1]; 20000 nM): 0.0938 ± 0.058; NHEJ-attributed indel frequency ([1]; 50000 nM): 0.0987 ± 0.029; MMEJ-attributed deletion frequency ([2]; 10000 nM): 0.229 ± 0.044; MMEJ-attributed deletion frequency ([2]; 20000 nM): 0.109 ± 0.062; MMEJ-attributed deletion frequency ([2]; 50000 nM): 0.0743 ± 0.0014; cell survival ([3]; 2000 nM): 0.514; cell survival ([3]; 5000 nM): -0.00651; cell survival ([3]; 10000 nM): -0.00445; cell survival ([3]; 20000 nM): -0.00662; cell survival ([3]; 50000 nM): -0.00233; HDR ([4]; 2000 nM): 0.589 ± 0.76; HDR ([4]; 5000 nM): 0.0594 ± 0.017; HDR ([4]; 10000 nM): 0.0558 ± 0.0014; HDR ([4]; 20000 nM): 0.0719 ± 0.015; HDR ([4]; 50000 nM): 0.0788 ± 0.0049
CC(O)C(=O)O (stereo not given) [lactate] (in H2O) |  |  | 0.984 ± 0.021 | 1.02 ± 0.028 |  |  | 1.01 ± 0.044 | 0.849 ± 0.074 |  |  | 1.15 | 1.08 |  |  | 1.02 ± 0.065 | 0.941 ± 0.056 | 0.998 ± 0.047 | 1 ± 0.013 | 1.05 ± 0.096 | 1 ± 0.094 | NHEJ-attributed indel frequency ([1]; 1000 nM): 1.04 ± 0.03; MMEJ-attributed deletion frequency ([2]; 1000 nM): 0.952 ± 0.094; cell survival ([3]; 1000 nM): 0.963; cell survival ([3]; 2000 nM): 1.06; cell survival ([3]; 5000 nM): 1.15; HDR ([4]; 1000 nM): 0.946 ± 0.091; HDR ([4]; 2000 nM): 1.01 ± 0.1; HDR ([4]; 5000 nM): 1.005 ± 0.0083
CC[C@]1(O)C[C@@H]2CN(CCc3c([nH]c4ccccc34)[C@@](C(=O)OC)(c3cc4c(cc3OC)N(C)[C@H]3[C@@](O)(C(=O)OC)[C@H](OC(C)=O)[C@]5(CC)C=CCN6CC[C@]43[C@@H]65)C2)C1 [vinblastine] (in DMSO) | 0.415 ± 0.0047 | 0.557 ± 0.013 |  |  | 0.674 ± 0.053 | 0.827 ± 0.05 |  |  | 0.00549 | 0.0072 |  |  | 0.249 ± 0.051 | 0.248 ± 0.035 |  |  |  |  |  |  | NHEJ-attributed indel frequency ([1]; 2 nM): 1.07 ± 0.05; NHEJ-attributed indel frequency ([1]; 5 nM): 0.982 ± 0.17; NHEJ-attributed indel frequency ([1]; 10 nM): 0.857 ± 0.17; MMEJ-attributed deletion frequency ([2]; 2 nM): 1.02 ± 0.27; MMEJ-attributed deletion frequency ([2]; 5 nM): 1.51 ± 0.71; MMEJ-attributed deletion frequency ([2]; 10 nM): 0.931 ± 0.61; cell survival ([3]; 2 nM): 0.524; cell survival ([3]; 5 nM): 0.114; cell survival ([3]; 10 nM): 0.0472; HDR ([4]; 2 nM): 0.877 ± 0.038; HDR ([4]; 5 nM): 0.65 ± 0.05; HDR ([4]; 10 nM): 0.556 ± 0.031
